# Test results as given in US20070037752A1, “Novel alanyl-amino peptidase inhibitors for functionally influencing different cells and treating immunological, inflammatory, neuronal, and other diseases” (priority 2003, published 2007).
# Molecular target: alanyl aminopeptidases (APN) (Homo sapiens, UniProt P15144)
# Test: Inhibition of alanyl aminopeptidase enzymatic activity, fluorogenic substrate (Ala)2-rhodamine 110
# Assay type: biochemical
# Settings: Table 3, starred values = ID50; read-out: ID50 APN (values marked with *)
# Protocol: The inhibition characteristics measured are referred to as IC-50 values or ID50 values (the latter marked with “*”) for said enzyme. The enzymatic activity was determined by means of the fluorogenic substrate/product (Ala)2-rhodamine 110.
# Chain of alanyl aminopeptidases (APN) (P15144 whole entry, species assumed): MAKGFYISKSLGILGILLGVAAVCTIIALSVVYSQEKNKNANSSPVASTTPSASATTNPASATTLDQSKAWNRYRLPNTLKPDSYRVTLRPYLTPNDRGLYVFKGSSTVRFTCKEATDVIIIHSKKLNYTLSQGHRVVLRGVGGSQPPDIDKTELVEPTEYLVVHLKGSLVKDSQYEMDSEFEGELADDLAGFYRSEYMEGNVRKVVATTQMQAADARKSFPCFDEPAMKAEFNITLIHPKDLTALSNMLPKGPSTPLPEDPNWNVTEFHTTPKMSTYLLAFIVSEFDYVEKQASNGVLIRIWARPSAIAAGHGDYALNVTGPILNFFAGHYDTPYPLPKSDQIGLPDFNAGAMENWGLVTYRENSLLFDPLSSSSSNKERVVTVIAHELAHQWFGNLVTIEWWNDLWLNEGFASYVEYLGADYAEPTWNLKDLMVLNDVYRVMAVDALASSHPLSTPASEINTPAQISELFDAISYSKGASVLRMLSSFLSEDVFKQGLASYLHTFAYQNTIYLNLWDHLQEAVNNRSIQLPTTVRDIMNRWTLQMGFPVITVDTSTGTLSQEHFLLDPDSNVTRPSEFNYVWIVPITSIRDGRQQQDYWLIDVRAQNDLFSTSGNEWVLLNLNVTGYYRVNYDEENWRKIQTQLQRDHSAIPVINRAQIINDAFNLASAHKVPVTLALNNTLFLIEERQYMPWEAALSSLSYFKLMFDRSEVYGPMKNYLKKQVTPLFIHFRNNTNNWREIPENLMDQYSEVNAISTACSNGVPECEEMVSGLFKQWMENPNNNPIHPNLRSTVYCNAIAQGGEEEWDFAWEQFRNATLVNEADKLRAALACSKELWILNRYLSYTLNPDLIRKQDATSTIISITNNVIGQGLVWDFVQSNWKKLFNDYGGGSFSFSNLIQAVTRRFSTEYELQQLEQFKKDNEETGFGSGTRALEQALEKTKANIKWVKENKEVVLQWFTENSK
row,Structure (SMILES),IC50 [µM]
1,O=C(Cc1ccccc1)NCC(=O)N/N=C/c1ccco1 [A3.300],73.1
2,O=C(N/N=C/c1ccco1)c1cc(-c2ccccc2Cl)n[nH]1 [A3.303],75.8
3,Cn1c(=O)c2c(ncn2CC(=O)N/N=C/C=C\c2ccco2)n(C)c1=O [A3.307],79.8
4,Cc1ccc(OCC(=O)N/N=C\c2ccco2)c(C)c1 [A3.309],81.8
5,O=C(CCNC(=O)c1ccccc1Br)N/N=C/c1ccco1 [A3.311],85.8
6,O=C(CNC(=O)c1ccccc1Br)N/N=C/c1ccco1 [A3.314],91.2
7,O=C(CNC(=O)c1ccccc1O)N/N=C/c1ccco1 [A3.318],98.8
8,C#CCN1C(c2cnccn2)=NC(CC(C)C)C1C(=O)Nc1c(C)cccc1C (centres unmarked) [A3.319],103
9,Cn1cccc1CC(=O)N/N=C\c1ccco1 [A3.320],113
10,COC(=O)c1c(N)ncn1-c1ccccc1 [A3.323],126
11,O=C(N/N=C\C=C\c1ccco1)c1cc(-c2cccs2)n[nH]1 [A3.324],132
12,CC(=O)Oc1ccc2c(=O)c(-c3cnn(-c4ccccc4)c3)c(C(F)(F)F)oc2c1OC(C)=O [A3.325],134
13,CC(C(=O)N/N=C/c1ccco1)n1nnc2ccccc21 (centres unmarked) [A3.327],146
14,CN1C(=O)C(Cc2c[nH]c3ccccc23)NC1=S (centres unmarked) [A3.330],146
15,CCCC1NC(=S)N(c2ccccc2)C1=O (centres unmarked) [A3.332],154
16,O=C(CNC(=O)c1cccc(F)c1)N/N=C/c1ccco1 [A3.333],155
17,C/C(=N\NC(=O)c1cc(-c2ccco2)n[nH]1)c1ccco1 [A3.334],161

row,Structure (SMILES),IC50 [µM]
1,COc1cc(C(=O)NCC(=O)N/N=C\c2ccc(C)o2)cc(OC)c1OC [A3.335],161
2,CCOC(=O)c1c(-c2ccccc2)c[nH]c1N [A3.336],169
3,O=C(CN1C(=O)C2C3C=CC(C3)C2C1=O)Nc1ccc(C(F)(F)F)cc1 (centres unmarked) [A3.337],223
4,CN(C)c1ccc(C2NCCS2)cc1 (centres unmarked) [A3.338],230
5,O=C(/C=C/c1ccco1)NCCCN1CCOCC1 [A3.339],208
6,COc1cccc(C(=O)NCC(=O)N/N=C/c2ccc([N+](=O)[O-])o2)c1 [A3.340],222
7,COC(=O)c1cc(C(=O)NC2CCSC2=O)cc([N+](=O)[O-])c1 (centres unmarked) [A3.341],238
8,COc1ccc(C2C(C(=O)c3ccccc3)C(c3ccccc3)C(C(=O)NCc3ccc(F)cc3)N2C(=O)NC2CCCCC2)cc1 (centres unmarked) [A3.342],231
9,C/C(=C\c1ccc(C(C)C)cc1)C1NCC(c2ccc([N+](=O)[O-])cc2)O1 (centres unmarked) [A3.345],293
10,O=C(N/N=C/c1ccco1)c1ccc(NCc2ccccc2)cc1 [A3.346],294
11,O=C(N/N=C/c1ccco1)c1ccc([N+](=O)[O-])cc1 [A3.347],305
12,CC(C)(C)c1ccc2c(c1)C1c3ccc(C(C)(C)C)cc3C2C2C(=O)N(c3cccc(Cl)c3)C(=O)C12 (centres unmarked) [A3.348],321
13,C/C(=N\NC(=O)c1ccn(C)n1)c1ccco1 [A3.349],323
14,CCc1ccc(N2C(=O)C3C(c4cccc(Cl)c4)OC4(C(=O)c5ccccc5C4=O)C3C2=O)cc1 (centres unmarked) [A3.350],336
15,C/C(=N\NC(=O)COc1ccc(C)cc1[N+](=O)[O-])c1ccco1 [A3.351],422
16,CCOc1ccc(C(=O)N/N=C(/C)c2ccco2)cc1 [A3.352],451

# Same assay, conditions: Table 3, unstarred values; read-out: IC50APN
row,Structure (SMILES),IC50 [µM]
1,CC(=O)C1C(c2ccc(N(C)C)cc2)C2C(=O)N(C3CCCCC3)C(=O)N2C1c1sccc1C (centres unmarked) [A3.294],68
2,O=C1C(=Cc2ccc([N+](=O)[O-])o2)C(=O)c2ccccc21 [A3.295],68
3,O=C(N/N=C/c1ccco1)c1ccc(F)cc1 [A3.296],68.9
4,Cc1ccc(C(=O)N/C(=C\c2ccco2)C(=O)N2CCSCC2)cc1C [A3.297],68.9
5,Cc1ccc(S(=O)(=O)N2CCC(C(=O)N/N=C/c3ccco3)CC2)cc1 [A3.298],69.3
6,N#Cc1c(NC(=O)C(C(F)(F)F)C(F)(F)F)sc2c1CCCC2 [A3.299],71.4
7,O=C(CCc1ccccc1)N/N=C/c1ccco1 [A3.302],74.7
8,Oc1ccc(Cl)cc1/N=C/c1ccc(-c2ccc(F)cc2)o1 [A3.305],77.3
9,O=C(CCn1nnc2ccccc21)N/N=C/c1ccco1 [A3.310],82.9
10,O=C(COc1ccccc1)N/N=C/c1ccco1 [A3.312],87.5
11,Cc1nc(-c2ccc(Br)cc2)c(CC(=O)O)s1 [A3.313],88.3
12,O=C(N/N=C/c1ccco1)c1ccccc1[N+](=O)[O-] [A3.315],92.2
13,COc1ccc(C2NCCS2)cc1OC (centres unmarked) [A3.316],92.1
14,COC(=O)CCC/C=C1/SC[C@@H](NC(=O)c2ccccc2)/C1=N/O [A3.317],93.6
15,COc1c(OCC(O)C(C)(C)O)ccc2c1N=C1OC=CC1C2OC (centres unmarked) [A3.321],125
16,CC1=C(C#N)C(=O)N(CCO)C(=O)/C1=C\c1ccc(-c2ccc(C)c(Cl)c2)o1 [A3.322],125
17,NCCCNC(=O)C1Cc2ncn(Cc3ccccc3[N+](=O)[O-])c2CN1Cc1ccccn1 (centres unmarked) [A3.326],138
18,COc1cccc(/C=N/NC(=O)c2ccn(C)n2)c1O [A3.328],142
19,O=C(Cc1cccs1)N/N=C\c1ccco1 [A3.329],143
20,C/C(=N\NC(=O)c1ccco1)c1ccc(C)o1 [A3.331],152

# Same assay, conditions: Table 4, unstarred values; read-out: IC50APN
row,Structure (SMILES),IC50 [µM]
1,C/C(CC1N=NC([N+](=O)[O-])=N1)=N/NC(=O)COc1ccccc1[N+](=O)[O-] (centres unmarked) [A4.001],3.4
2,COc1ccc(/C=N/NC(=O)C2=C(C)Nc3ccccc3S2)cc1Cn1nc(C)c(Br)c1C [A4.002],4.8
3,COc1cc(Br)ccc1OCC(=O)N/N=C/c1cc(O)c(O)c(Br)c1Br [A4.003],5
4,CCN(CC)c1ccc(/C=C(/NC(=O)c2ccccc2)C(=O)N/N=C/c2cc(I)c(O)c(I)c2)cc1 [A4.004],5.1
5,O=C(N/N=C/c1cc(Cl)cc([N+](=O)[O-])c1O)c1ccccc1O [A4.005],5.8
6,Cc1c(Cl)cccc1NC(=O)C(=O)N/N=C/c1c(OCc2ccccc2)ccc2ccccc12 [A4.006],6.6
7,CCc1cccc(CC)c1NC(=S)N/N=C1\C(=O)N(CN2CC(C)CC(C)C2)c2ccccc21 (centres unmarked) [A4.007],6.7
8,Cc1ccc(/C=N/NC(=O)c2cn(-c3nonc3N)nn2)o1 [A4.008],6.9
9,O=C(Cc1ccc(Br)c2ccccc12)N/N=C/c1ccc([N+](=O)[O-])c(O)c1 [A4.009],7
10,COc1cc(Br)cc(Br)c1OCC(=O)N/N=C/c1cc(O)c(O)c(Br)c1Br [A4.010],7.2
11,CCN(CC)c1ccc(/C=C(\NC(=O)c2ccccc2)C(=O)N/N=C/c2ccc(O)c([N+](=O)[O-])c2)cc1 [A4.011],7.6
12,Cc1cccc(NCC(=O)N/N=C/c2cc(Br)c(O)c(O)c2Br)c1 [A4.012],7.8
13,O=C(N/N=C\c1ccco1)c1ccc(S(=O)(=O)N2CCCCCC2)cc1 [A4.013],8
14,Cc1ccc(/C=N/NC(=O)c2cccc(NC(=O)c3ccc(F)cc3)c2)o1 [A4.014],9.8
15,Cc1ccc(/C=N/NC(=O)c2cccc(Cl)c2)o1 [A4.015],10.5
16,Cc1ccc(/C=N/NC(=O)c2cn(-c3nonc3N)nn2)o1 [A4.016],10.9
17,COc1cc(Br)ccc1OCC(=O)N/N=C/C=C/c1ccco1 [A4.017],11
18,CC(NC(=O)C(=O)N/N=C\c1cc([N+](=O)[O-])ccc1O)c1ccccc1 (centres unmarked) [A4.018],11.4
19,C/C(=N\NC(=O)CNC(=O)/C=C/c1ccco1)c1ccc2ccccc2c1 [A4.019],12
20,CCOc1cc(/C=N/NC(=O)CNC(=O)c2cccc(Cl)c2)ccc1OC(=O)c1cccs1 [A4.020],12.2
21,Cc1nc(C)c(C(=O)N/N=C/c2ccco2)s1 [A4.021],12.3
22,COCc1c(C(=O)N/N=C/c2ccc(C)o2)nnn1-c1nonc1N [A4.022],12.5
23,O=C(COc1cccc2ccccc12)N/N=C/c1ccco1 [A4.023],12.9

row,Structure (SMILES),IC50 [µM]
1,COc1cc(Br)cc(Br)c1OCC(=O)N/N=C/c1cc(Br)c(O)c(O)c1Br [A4.024],13.2
2,COC(=O)N/N=C(C)\C=C\c1ccco1 [A4.025],13.5
3,O=C(COc1ccc(F)cc1)N/N=C/c1ccco1 [A4.026],13.6
4,CCc1ccc(-c2cc(C(=O)N/N=C/c3c(C)nn(-c4ccccc4)c3C)[nH]n2)cc1 [A4.027],13.6
5,O=C(NN=C(/C=C/c1ccccc1)c1ccccc1)c1cc2ccccc2cc1O [A4.028],13.7
6,O=C(COc1ccc2ccccc2c1)N/N=C/c1ccco1 [A4.029],13.9
7,O=C(N/N=C/c1ccco1)c1cc(C2CC2)n[nH]1 [A4.030],14.3
8,O=C(N/N=C/c1ccco1)c1cc(-c2ccc(F)cc2)n[nH]1 [A4.031],14.4
9,N/C(=N\N=C\c1ccco1)c1nonc1N [A4.032],14.6
10,COc1ccc(OCC(=O)N/N=C/c2cc(Br)c(O)c(O)c2Br)c(Br)c1 [A4.033],15
11,O=C(CNC(=O)C(c1ccccc1)c1ccccc1)N/N=C/c1ccco1 [A4.034],15.6
12,CC(C)C/C=N/NC(=O)c1ccc([N+](=O)[O-])cc1Cl [A4.035],15.6
13,O=C(N/N=C/C=C\c1ccco1)c1ccco1 [A4.036],16
14,O=C(N/N=C/c1ccco1)c1ccccc1O [A4.037],16
15,Cc1ccc(/C=N/NC(=O)COc2ccc(Cl)cc2)o1 [A4.038],16
16,CC(C)c1cc(C(=O)N/N=C/c2ccco2)[nH]n1 [A4.040],16.6
17,COc1ccc(/C=C(/NC(=O)c2ccccc2)C(=O)N/N=C\C=C\c2ccc(C)o2)cc1OC [A4.041],16.7
18,O=C(N/N=C/c1ccco1)c1ccc(O)cc1 [A4.042],16.8
19,COc1cc(/C=N/NC(=O)c2cc(-c3ccco3)n[nH]2)cc(OC)c1OC [A4.043],17
20,Cc1ccc(/C=N/NC(=O)c2ccccc2Cl)o1 [A4.044],17.7
21,Cc1ccc(/C=N/NC(=O)c2ccccc2OCc2ccccc2)o1 [A4.045],18.4
22,O=C(Nc1ccccc1C(=O)N/N=C/c1ccco1)c1ccc(Cl)cc1Cl [A4.046],18.7
